Patent US5607926A, “Cephalosporin antibiotics” (Microcide Pharmaceuticals, Inc., priority 1995, dated 1997)
In brackets after ≈: the same amount, converted by molar mass. Read-outs that look alike come from different tables or passages of the source.

Legend:
[1] = test system: S. aureus ATCC 29213; test: In vitro antibacterial evaluation, MIC by agar dilution, S. aureus ATCC 29213; assay type: cell-based; settings: Staphylococcus aureus, ATCC29213
Method in brief: (§1)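 Minimum inhibitory concentrations came from the NCCLS agar dilution method in Mueller-Hinton agar. Each isolate received about 10^4 cfu per spot, and plates were read after 16-20 hours at 35°-36° C.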

[2] = test system: P. aeruginosa ATCC 27853; test: In vitro antibacterial evaluation, MIC by agar dilution, P. aeruginosa ATCC 27853; assay type: cell-based; settings: Pseudomonas aeruginosa, ATCC27853, read-out: MIC
Method in brief: as §1

[3] = test system: methicillinsusceptible S. aureus strain ATCC 13709; test: Challenge strain MIC; assay type: cell-based; settings: Staphylococcus aureus, ATCC13709, S. aureus ATCC 13709; read-out: Challenge str MIC
Method: The compounds of the invention were evaluated against several β-lactamresistant bacteria strains by determining the minimum inhibitory concentration (MIC, μg/ml) of each compound with respect to each strain. The MIC, the lowest concentration of antibiotic which inhibits growth of the test organism, was determined by the agar dilution method.
To determine the MIC for bacterial isolates, the test compound was incorporated in a series of two-fold dilutions into liquified Mueller-Hinton agar. Upon solidification, a number of different bacterial strains were spot inoculated with a replicating device onto the agar surface. […] The procedures used in these studies have been standardized by the National Committee for Clinical Laboratory Standards (NCCLS), as per the NCCLS publication entitled METHODS FOR DILUTION ANTIMICROBIAL SUSCEPTIBILITY TESTS (1991), which is incorporated herein by reference.
Aliquots of antimicrobial agents were prepared in phosphate buffered saline (PBS) at pH 7.2. Tween 20 or DMSO was used as a solubilizing vehicle as needed. Standard methods of vortexing, sonicating and gentle heat were used to facilitate solubilizing the test agent. Typically, the concentration of the stock solution was 10× that of the highest drug concentration tested. A 1.28 mg/mL stock solution was used with a subsequent highest working concentration of 128 μg/mL. Serial two-fold dilutions were done through ≤0.25 μg/mL. Each drug level was tested in duplicate. Two-fold drug dilutions were done in sterile 50 mL tubes with a final drug volume of 5 mL. Upon the addition of 45 mL of molten agar, a 10-fold dilution resulted. Two, 25 mL. plates were then poured into 15×150 mm square Petri plates with grids and allowed to harden.
A control plate with a reference drug, either cefotaxime, vancomycin or imipenem, was used as the positive growth control. Stock concentrations of reference antibiotics were prepared and frozen at -80° C. Upon preparation, the control plates were sealed and stored in the refrigerator for up to 1 week prior to use; however, imipenem control plates had to be prepared just prior to use. All test plates were used within 24 hours of preparation.
Satisfactory results were obtained where the inoculum contained about 10^4 colony forming units (cfu) ±0.5 logs. Starting with pure cultures of the test isolates on agar plates, a few isolated colonies were transferred to a tube of nutrient broth and allowed to grow 4-6 hours at 35°-36° C. to reach log-phase growth. Dropwise addition of the broth culture to PBS was done to match a 0.5 McFarland turbidity standard equal to 10^8 cfu/mL. This was further diluted ten-fold in PBS to reach a working inoculum concentration of 10^7 cfu/mL. When 1 μL of the working inoculum was applied to the agar surface a concentration of about 10^4 cfu per spot was obtained.
Disposable sterile 1 μL loops were used to inoculate test plates, with each isolate in a designated grid on the agar plate. An alternate method of inoculation involved the use of a replica plater, a device with 48 steel pins allowing the simultaneous inoculation of multiple isolates. After the spots had dried, the plates were incubated at 35°-36° C. for 16-20 hours. Endpoints were assessed as the minimum inhibitory concentration (MIC) of antimicrobial agent.
(§2) data reported for challenge with methicillinsusceptible S. aureus strain

[4] = test system: E. coli ATCC 25922; test: In vitro antibacterial evaluation, MIC by agar dilution, E. coli ATCC 25922; assay type: cell-based; settings: Escherichia coli, ATCC25922, read-out: MIC
Method in brief: as §1

[5] = test system: E. faecalis ATCC 29212; test: In vitro antibacterial evaluation, MIC by agar dilution, E. faecalis ATCC 29212; assay type: cell-based; settings: Enterococcus faecalis, ATCC29212
Method in brief: as §1

[6] = test system: S. aureus 76 (Meth^R)(lac^+); test: In vitro antibacterial evaluation, MIC by agar dilution, S. aureus 76; assay type: cell-based; settings: Staphylococcus aureus, read-out: MIC
Method in brief: as §1

[7] = test system: methicillinsusceptible S. aureus strain ATCC 13709; test: In vivo antibacterial evaluation, murine model for lethal bacteremic peritonitis; design: species or system S. aureus in female Swiss-Webster mice; settings: Staphylococcus aureus, ATCC13709, sc, 72 h, two equal SC doses at challenge and 2 hours later, mice, probit, read-out: ED50
Method: Groups of 5 female Swiss-Webster mice (Simonsen, Gilroy, Calif.) each are challenged by the intraperitoneal (IP) route with ten-fold increments of a bacterial inoculum. This permits calculation of the mean lethal dose (LD50) and the LD100. For preliminary evaluation of a new antibiotic, mice are challenged IP with an LD100 titer of bacteria. In two equal doses administered at the time of bacterial challenge and 2 hours later, groups of 10 mice each are treated subcutaneously with two-fold increments of the test drug and an antibiotic of known efficacy in mice and humans (i.e., positive control). Mice are observed for 72 h. Those alive at 72 h are considered long term survivors. The total drug dose in mg/kg that protects 50% of mice in a group from death is termed the mean protective dose (PD50). PD50 s are similarly determined for several pathogens. The quantitative endpoints for the new drug are then compared with those obtained with reference antibiotics.
Six ten-fold dilutions of inoculum suspended in 0.5 mL of sterilized 7% hog gastric mucin (Sigma) are injected IP in groups of 5 mice each. A control group of 5 mice receive mucin alone. Mice are observed for 72 h. Those alive at 72 h are considered long term survivors. The mean lethal dose (LD50) and 100% lethal dose (LD100) are determined by the probit test.
For antibiotic efficacy studies, mice are challenged IP with bacterial titers that will afford an LD100 for the test strain. In two equal doses administered at the time of bacterial challenge and 2 hours later, groups of 10 mice each are treated by the subcutaneous route (SC) with twofold increments of the test antibiotic; another group is treated similarly with a reference antibiotic of known efficacy in animals and man. Drug doses can range from 0.01 to 512 mg/kg. If the drug is poorly soluble, Tween 20 or propylene glycol will be employed to solubilize the drug. Animals are observed for 72 h. The 50% protective dose (PD50) is calculated in mg/kg by the probit method. The PD50 is the same as the 50% effective dose (ED50) and the 50% curative dose (CD50). Samples of blood from the hearts of all animals that die and from half the mice that survive are cultured on brain-heart infusion agar. Animals that received a protective dosage of the test drug will be alive at 72 h, although they may appear moderately ill to very ill during the observation period. […] Most of these mice will die within 6 to 48 h. Those alive at 72 h will be considered long term survivors.
as §2

[8] = test system: E. faecium ATCC 35667; test: In vitro antibacterial evaluation, MIC by agar dilution, E. faecium ATCC 35667; assay type: cell-based; settings: Enterococcus faecium, ATCC35667, read-out: MIC
Method in brief: as §1

[9] = test system: S. aureus Col8A (Meth^S)(lac^-); test: In vitro antibacterial evaluation, MIC by agar dilution, S. aureus Col8A; assay type: cell-based; settings: Staphylococcus aureus
Method in brief: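 Agar dilution per NCCLS (1991): two-fold dilutions from 128 μg/mL down to ≤0.25 μg/mL in Mueller-Hinton agar, each level in duplicate. Spots of about 10^4 cfu of log-phase culture; 16-20 h at 35°-36° C. MIC in μg/ml is the lowest concentration inhibiting growth.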

[10] = test system: S. haemolyticus (Meth^R); test: In vitro antibacterial evaluation, MIC by agar dilution, S. haemolyticus; assay type: cell-based; settings: Staphylococcus haemolyticus, read-out: MIC
Method in brief: as §1

[11] = E. faecalis ATCC 29212, read-out: MIC
[12] = S. aureus ATCC 29213, read-out: MIC

Row | Structure (SMILES) | MIC [1] | MIC [2] | MIC [3] | MIC [4] | MIC [5, 11] | MIC [6] | ED50 [7] | MIC [8] | MIC [9] | MIC [10] | MIC [1, 12] | MIC [5]
1 | O=C(O)C1=C(Sc2ccnn2-c2ccccc2)CS[C@@H]2[C@H](NC(=O)C3SCCS3)C(=O)N12 [Cmpd 115, (7R)-7-[(2-dithiolanylcarbonyl)amino]-3-(1-N-phenylpyrazol-5-ylthio)-3-cephem-4-carboxylic acid] | 0.25 µg/mL (≈ 0.493 µM) | > 32 µg/mL | 0.25 µg/mL (≈ 0.493 µM) | > 32 µg/mL | 4 µg/mL (≈ 7.89 µM) | 8 µg/mL (≈ 15.8 µM) | 3.04 mg/kg | 8 µg/mL (≈ 15.8 µM) | 0.25 µg/mL (≈ 0.493 µM) | 32 µg/mL (≈ 63.2 µM) |  | 
2 | Cc1nnc(SCC(=O)N[C@@H]2C(=O)N3C(C(=O)O)=C(Sc4ccnn4-c4ccccc4)CS[C@H]23)s1 [Cmpd 118] |  | > 32 µg/mL | 0.06 µg/mL (≈ 0.11 µM) | > 32 µg/mL | 4 µg/mL (≈ 7.32 µM) | 8 µg/mL (≈ 14.6 µM) | 3.38 mg/kg | 4 µg/mL (≈ 7.32 µM) | 0.125 µg/mL (≈ 0.229 µM) | 32 µg/mL (≈ 58.5 µM) | 0.25 µg/mL (≈ 0.457 µM) | 
3 | O=C(CSc1ccccc1)N[C@@H]1C(=O)N2C(C(=O)O)=C(Sc3ccnn3-c3ccccc3)CS[C@H]12 [Cmpd 119, (7R)-7-[(phenylthioacetyl)amino]-3-(1-N-phenylpyrazol-5-ylthio)-3-cephem-4-carboxylic acid] |  | > 32 µg/mL | 0.25 µg/mL (≈ 0.477 µM) | > 32 µg/mL | 1 µg/mL (≈ 1.91 µM) | 8 µg/mL (≈ 15.2 µM) | > 5 mg/kg | 1 µg/mL (≈ 1.91 µM) | 0.06 µg/mL (≈ 0.114 µM) | 16 µg/mL (≈ 30.5 µM) | 0.125 µg/mL (≈ 0.238 µM) | 
4 | N#CCSCC(=O)N[C@@H]1C(=O)N2C(C(=O)O)=C(Sc3ccnn3-c3ccccc3)CS[C@H]12 [Cmpd 122, (7R)-7-[(cyanomethylthioacetyl)amino]-3-(1-N-phenylpyrazol-5-ylthio)-3-cephem-4-carboxylic acid] | 0.25 µg/mL (≈ 0.513 µM) | > 32 µg/mL | 0.125 µg/mL (≈ 0.256 µM) | > 32 µg/mL | 4 µg/mL (≈ 8.2 µM) | 8 µg/mL (≈ 16.4 µM) | 1.13 mg/kg | 4 µg/mL (≈ 8.2 µM) | 0.25 µg/mL (≈ 0.513 µM) | 16 µg/mL (≈ 32.8 µM) |  | 
5 | O=C(O)C1=C(Sc2ccnn2-c2ccccc2)CS[C@@H]2[C@H](NC(=O)/C(=N\O)c3ccccc3)C(=O)N12 [Cmpd 130, (7R)-7-[(Z)-2-(Phenyl)-2-(hydroxyimino)acetamido]-3-(1-N-(phenyl)pyrazol-5-ylthio)-3-cephem-4-carboxylic acid] |  | > 32 µg/mL | 0.125 µg/mL (≈ 0.24 µM) | > 32 µg/mL |  | 4 µg/mL (≈ 7.67 µM) | > 10 mg/kg | 0.5 µg/mL (≈ 0.959 µM) | 0.25 µg/mL (≈ 0.479 µM) | 4 µg/mL (≈ 7.67 µM) | 0.125 µg/mL (≈ 0.24 µM) | 0.25 µg/mL (≈ 0.479 µM)
